Patent US10160755B2 (Plexxikon Inc., priority 2015, dated 2018)

Molecular target: T1, BA/F3-FLT3-ITD + F691L cells (Homo sapiens, UniProt P36888, F691L, cells depend on it, form not given)
T1 sequence (P36888 1-993 F691L): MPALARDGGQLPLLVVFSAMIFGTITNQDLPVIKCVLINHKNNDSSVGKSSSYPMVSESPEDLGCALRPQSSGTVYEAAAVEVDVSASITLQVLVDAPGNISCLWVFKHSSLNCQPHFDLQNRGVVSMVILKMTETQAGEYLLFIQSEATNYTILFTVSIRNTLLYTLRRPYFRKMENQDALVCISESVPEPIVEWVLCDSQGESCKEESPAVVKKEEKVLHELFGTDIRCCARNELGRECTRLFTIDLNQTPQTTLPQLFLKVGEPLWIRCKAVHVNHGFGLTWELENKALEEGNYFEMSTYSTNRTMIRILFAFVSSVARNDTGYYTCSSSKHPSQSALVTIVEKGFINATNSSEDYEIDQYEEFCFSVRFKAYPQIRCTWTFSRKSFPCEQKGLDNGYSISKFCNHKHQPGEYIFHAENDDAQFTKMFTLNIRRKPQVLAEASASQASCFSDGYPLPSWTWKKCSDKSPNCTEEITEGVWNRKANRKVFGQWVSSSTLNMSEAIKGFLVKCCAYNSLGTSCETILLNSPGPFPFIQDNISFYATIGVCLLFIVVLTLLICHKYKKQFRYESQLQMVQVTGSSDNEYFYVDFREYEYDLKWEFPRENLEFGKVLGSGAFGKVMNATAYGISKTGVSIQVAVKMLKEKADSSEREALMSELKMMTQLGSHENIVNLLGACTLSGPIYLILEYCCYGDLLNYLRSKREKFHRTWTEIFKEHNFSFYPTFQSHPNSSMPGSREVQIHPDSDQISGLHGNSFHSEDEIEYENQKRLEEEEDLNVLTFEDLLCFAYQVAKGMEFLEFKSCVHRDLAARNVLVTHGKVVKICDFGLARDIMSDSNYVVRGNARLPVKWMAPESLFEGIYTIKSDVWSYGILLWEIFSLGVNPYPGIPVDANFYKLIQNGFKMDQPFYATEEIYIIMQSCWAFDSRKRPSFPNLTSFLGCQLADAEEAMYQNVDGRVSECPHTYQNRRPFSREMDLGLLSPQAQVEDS
Test: BA/F3-FLT3-ITD + F691L cell proliferation assay (CellTiter-Glo)
Type: cell-based, murine
Conditions: BaF3 FLT3 ITD/F691L cells; read-out: Cell Activity (IC50 μM) BaF3_FLT3_ITD/F691L
Method in brief: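 Three-day growth assay, IC50 from CellTiter-Glo ATP luminescence vs concentration. Compounds at 10 to 0.0046 μM (1:3 steps, final DMSO 0.2%) on 1×10^4 cells/well. Cells are IL-3-independent BA/F3 lines engineered to express full-length FLT3-ITD with the D835Y or the F691L mutation.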

| Compound | GI50 [µM] |
| --- | --- |
| COc1cc(-c2cnc3[nH]cc(-c4ccc5ncn(C(C)(C)C)c5c4)c3c2)c(OC)nn1 [P-292, 1-tert-butyl-6-[5-(3,6-dimethoxypyridazin-4-yl)-1H-pyrrolo[2,3-b]pyridin-3-yl]benzimidazole] | 0.0001 to 1 |
| CC(C)(C)n1cnc2ccc(-c3c[nH]c4ncc(-c5ccc(N6CCCS6(=O)=O)cc5)cc34)cc21 [P-320, 2-[4-[3-(3-tert-butylbenzimidazol-5-yl)-1H-pyrrolo[2,3-b]pyridin-5-yl]phenyl]-1,2-thiazolidine 1,1-dioxide] | 0.0001 to 1 |
| FC(F)n1cc(-c2cnc3[nH]cc(-c4ccc5ncn(C6CCCNC6)c5c4)c3c2)cn1 (stereo not shown) [P-274, 5-[1-(difluoromethyl)pyrazol-4-yl]-3-[3-(3-piperidyl)benzimidazol-5-yl]-1H-pyrrolo[2,3-b]pyridine] | 0.0001 to 1 |
| CC(C)(C)n1cnc2ccc(-c3c[nH]c4ncc(-c5ccc(N6CCC(F)(F)CC6)nc5)nc34)cc21 [P-356, 7-(3-tert-butylbenzimidazol-5-yl)-2-[6-(4,4-difluoro-1-piperidyl)-3-pyridyl]-5H-pyrrolo[2,3-b]pyrazine] | 0.0001 to 1 |
| CC(C)(C)n1cnc2ccc(-c3c[nH]c4ncc(-c5cnc(F)c(F)c5)nc34)cc21 [P-390, 7-(3-tert-butylbenzimidazol-5-yl)-2-(5,6-difluoro-3-pyridyl)-5H-pyrrolo[2,3-b]pyrazine] | 0.0001 to 1 |
| COc1cnc2[nH]cc(-c3ccc4ncn(-c5ccccc5)c4c3)c2c1 [P-068, 5-methoxy-3-(3-phenylbenzimidazol-5-yl)-1H-pyrrolo[2,3-b]pyridine] | 0.0001 to 1 |
| Cc1ncc(C#Cc2cnc3[nH]cc(-c4ccc5ncn(C6CCCNC6)c5c4)c3n2)cn1 (stereo not shown) [P-285, 2-[2-(2-methylpyrimidin-5-yl)ethynyl]-7-[3-(3-piperidyl)benzimidazol-5-yl]-5H-pyrrolo[2,3-b]pyrazine] | 0.0001 to 1 |
| CCN1CCN(c2cc(-c3cnc4[nH]cc(-c5ccc6ncn(C(C)(C)C)c6c5)c4n3)ccn2)CC1 [P-328, 7-(3-tert-butylbenzimidazol-5-yl)-2-[2-(4-ethylpiperazin-1-yl)-4-pyridyl]-5H-pyrrolo[2,3-b]pyrazine] | 0.0001 to 1 |
| CC(C)(C)n1cnc2ccc(-c3n[nH]c4ncc(-c5ccnc(N6CCOCC6)c5)cc34)cc21 [P-297, 4-[4-[3-(3-tert-butylbenzimidazol-5-yl)-1H-pyrazolo[3,4-b]pyridin-5-yl]-2-pyridyl]morpholine] | 0.0001 to 1 |
| CCN1CCN(c2ccc(-c3cnc4[nH]cc(-c5ccc6ncn(C(C)(C)C)c6c5)c4n3)cn2)CC1 [P-365, 7-(3-tert-butylbenzimidazol-5-yl)-2-[6-(4-ethylpiperazin-1-yl)-3-pyridyl]-5H-pyrrolo[2,3-b]pyrazine] | 0.0001 to 1 |
| CC(C)(C)n1cnc2ccc(-c3c[nH]c4ncc(-c5cccc(N6CCCCC6)c5)nc34)cc21 [P-336, 7-(3-tert-butylbenzimidazol-5-yl)-2-[3-(1-piperidyl)phenyl]-5H-pyrrolo[2,3-b]pyrazine] | 0.0001 to 1 |
| COc1cc(-c2cnc3[nH]cc(-c4ccc5ncn(C6CCCN(S(C)(=O)=O)C6)c5c4)c3n2)ccn1 (stereo not shown) [P-281, 2-(2-methoxy-4-pyridyl)-7-[3-(1-methylsulfonyl-3-piperidyl)benzimidazol-5-yl]-5H-pyrrolo[2,3-b]pyrazine] | 0.0001 to 1 |
| Cn1cnc2ccc(-c3c[nH]c4nnc(Cl)cc34)cc21 [P-313, 3-chloro-5-(3-methylbenzimidazol-5-yl)-7H-pyrrolo[2,3-c]pyridazine] | 0.0001 to 1 |
| Cc1cc(C#Cc2cnc3[nH]cc(-c4ccc5ncn(C(C)(C)C)c5c4)c3n2)cc(C)n1 [P-282, 7-(3-tert-butylbenzimidazol-5-yl)-2-[2-(2,6-dimethyl-4-pyridyl)ethynyl]-5H-pyrrolo[2,3-b]pyrazine] | 0.0001 to 1 |
| FC(F)(F)Cn1cc(-c2cnc3[nH]cc(-c4ccc5ncn(C6CCCNC6)c5c4)c3c2)cn1 (stereo not shown) [P-275, 1-(3-piperidyl)-6-[5-[1-(2,2,2-trifluoroethyl)pyrazol-4-yl]-1H-pyrrolo[2,3-b]pyridin-3-yl]benzimidazole] | 0.0001 to 1 |
| O=S1(=O)CCCN1c1ccc(-c2cnc3[nH]cc(-c4ccc5ncn(C6CCCNC6)c5c4)c3c2)cc1 (stereo not shown) [P-319, 2-[4-[3-[3-(3-piperidyl)benzimidazol-5-yl]-1H-pyrrolo[2,3-b]pyridin-5-yl]phenyl]-1,2-thiazolidine 1,1-dioxide] | 0.0001 to 1 |

| Compound | GI50 [µM] |
| --- | --- |
| CC(C)(C)n1cnc2ccc(-c3c[nH]c4ncc(-c5cccc(N6CCOCC6)c5)cc34)cc21 [P-316, 4-[3-[3-(3-tert-butylbenzimidazol-5-yl)-1H-pyrrolo[2,3-b]pyridin-5-yl]phenyl]morpholine] | 0.0001 to 1 |
| CC(C)(C)n1cnc2ccc(-c3c[nH]c4ncc(-c5cnc(C#N)nc5)nc34)cc21 [P-352, 5-[7-(3-tert-butylbenzimidazol-5-yl)-5H-pyrrolo[2,3-b]pyrazin-2-yl]pyrimidine-2-carbonitrile] | 0.0001 to 1 |
| COc1cc(-c2cnc3[nH]cc(-c4ccc5ncn(C6(C(F)(F)F)CC6)c5c4)c3n2)ccn1 [P-312, 2-(2-methoxy-4-pyridyl)-7-[3-[1-(trifluoromethyl)cyclopropyl]benzimidazol-5-yl]-5H-pyrrolo[2,3-b]pyrazine] | 0.0001 to 1 |
| CC(C)(C)n1cnc2ccc(-c3c[nH]c4ncc(-c5cnc(O)nc5)nc34)cc21 [P-363, 5-[7-(3-tert-butylbenzimidazol-5-yl)-5H-pyrrolo[2,3-b]pyrazin-2-yl]pyrimidin-2-ol] | 0.0001 to 1 |
| CC(C)(C)n1cnc2ccc(-c3c[nH]c4ncc(-c5ccnc(N6CCCCS6(=O)=O)c5)nc34)cc21 [P-309, 2-[4-[7-(3-tert-butylbenzimidazol-5-yl)-5H-pyrrolo[2,3-b]pyrazin-2-yl]-2-pyridyl]thiazinane 1,1-dioxide] | 0.0001 to 1 |
| CC(C)(C)n1cnc2ccc(-c3c[nH]c4ncc(-c5ccc(N6CCCCC6)cc5)nc34)cc21 [P-345, 7-(3-tert-butylbenzimidazol-5-yl)-2-[4-(1-piperidyl)phenyl]-5H-pyrrolo[2,3-b]pyrazine] | 0.0001 to 1 |
| Cc1ccc(-c2cnc3[nH]cc(-c4ccc5ncn(C(C)(C)C)c5c4)c3n2)cn1 [P-388, 7-(3-tert-butylbenzimidazol-5-yl)-2-(6-methyl-3-pyridyl)-5H-pyrrolo[2,3-b]pyrazine] | 0.0001 to 1 |
| CC(C)(C)n1cnc2ccc(-c3c[nH]c4ncc(-c5ccnc(C#N)c5)nc34)cc21 [P-301, 4-[7-(3-tert-butylbenzimidazol-5-yl)-5H-pyrrolo[2,3-b]pyrazin-2-yl]pyridine-2-carbonitrile] | 0.0001 to 1 |
| CCN1CCN(c2cccc(-c3cnc4[nH]cc(-c5ccc6ncn(C7CCCNC7)c6c5)c4n3)c2)CC1 (stereo not shown) [P-329, 2-[3-(4-ethylpiperazin-1-yl)phenyl]-7-[3-(3-piperidyl)benzimidazol-5-yl]-5H-pyrrolo[2,3-b]pyrazine] | 0.0001 to 1 |
| CN1CCN(c2ccc(-c3cnc4[nH]cc(-c5ccc6ncn(C7CCCNC7)c6c5)c4n3)cc2)CC1 (stereo not shown) [P-344, 2-[4-(4-methylpiperazin-1-yl)phenyl]-7-[3-(3-piperidyl)benzimidazol-5-yl]-5H-pyrrolo[2,3-b]pyrazine] | 0.0001 to 1 |
| c1nc(N2CCOCC2)ncc1-c1cnc2[nH]cc(-c3ccc4ncn(C5CCCNC5)c4c3)c2c1 (stereo not shown) [P-277, 4-[5-[3-[3-(3-piperidyl)benzimidazol-5-yl]-1H-pyrrolo[2,3-b]pyridin-5-yl]pyrimidin-2-yl]morpholine] | 0.0001 to 1 |
| Cc1cc(C#Cc2cnc3[nH]cc(-c4ccc5ncn(C6CCCNC6)c5c4)c3n2)cc(C)n1 (stereo not shown) [P-283, 2-[2-(2,6-dimethyl-4-pyridyl)ethynyl]-7-[3-(3-piperidyl)benzimidazol-5-yl]-5H-pyrrolo[2,3-b]pyrazine] | 0.0001 to 1 |
| COc1cnc2[nH]cc(-c3ccc4ncn(C5CCCNC5)c4c3)c2c1 (stereo not shown) [P-079, 5-methoxy-3-[3-(3-piperidyl)benzimidazol-5-yl]-1H-pyrrolo[2,3-b]pyridine] | 0.0001 to 1 |
| COc1cnc2[nH]cc(-c3ccc4ncn(C5CCC5)c4c3)c2c1 [P-061, 1-cyclobutyl-6-(5-methoxy-1H-pyrrolo[2,3-b]pyridin-3-yl)benzimidazole] | 0.0001 to 1 |
| CC(C)(C)n1cnc2ccc(-c3c[nH]c4ncc(-c5cccc(N6CCCS6(=O)=O)c5)cc34)cc21 [P-278, 2-[3-[3-(3-tert-butylbenzimidazol-5-yl)-1H-pyrrolo[2,3-b]pyridin-5-yl]phenyl]-1,2-thiazolidine 1,1-dioxide] | 0.0001 to 1 |
